Reference: patent US9938562B2, “Naphthalene derived chromogenic enzyme substrates” (Glycosynth Limited, priority 2013, dated 2018)
Structures can show the parent of a compound that is named as a salt. Where two headings read alike, the source gives them in different places.

Columns and labels:
[1] = test system: Salmonella typhimurium NCTC 74; test: Agar plate multi-point inoculation, colour; assay type: cell-based
[2] = test system: Candida albicans ATCC 90028; assay type: cell-based; details: Columbia agar, FAC 500 mg/L, substrate 300 mg/L, 37° C. 18 h in air
[3] = test system: Citrobacter freundii NCTC 9750 or 46262; test: Agar plate multi-point inoculation, colour; assay type: cell-based; details: Columbia agar, FAC 500 mg/L, substrate 300 mg/L, 37° C. 18 h in air
[4] = test system: Providencia rettgeri NCTC 7475; test: Agar plate multi-point inoculation, colour; assay type: cell-based
[5] = test system: Enterobacter cloacae NCTC 11936; test: Agar plate multi-point inoculation, colour; assay type: cell-based
[6] = test system: Candida glabrata NCPF 3943; test: Agar plate multi-point inoculation, colour; assay type: cell-based
[7] = test system: Escherichia coli NCTC 10418; test: Agar plate multi-point inoculation, colour; assay type: cell-based
[8] = test system: Yersinia enterocolitica NCTC 11176; test: Agar plate multi-point inoculation, colour; assay type: cell-based; details: Columbia agar, FAC 500 mg/L, substrate 300 mg/L, 37° C. 18 h in air
[9] = test system: Steptococcus pyogenes NCTC 8306; test: Agar plate multi-point inoculation, colour; assay type: cell-based
[10] = test system: Staphylococcus aureus (MRSA) NCTC 11939; test: Agar plate multi-point inoculation, colour; assay type: cell-based; details: Columbia agar, FAC 500 mg/L, substrate 300 mg/L, 37° C. 18 h in air
[11] = test system: Burkholderia cepacia 1222; test: Agar plate multi-point inoculation, colour; assay type: cell-based; details: Columbia agar, FAC 500 mg/L, substrate 300 mg/L, 37° C. 18 h in air
[12] = test system: Pseudomonas aeruginosa NCTC 10662; test: Agar plate multi-point inoculation, colour; assay type: cell-based
[13] = test system: Serratia marcescens NCTC 10211; test: Agar plate multi-point inoculation, colour; assay type: cell-based
[14] = test system: Enterococcus faecalis NCTC 775; test: Agar plate multi-point inoculation, colour; assay type: cell-based
[15] = test system: Listeria monocytogenes NCTC 11994; test: Agar plate multi-point inoculation, colour; assay type: cell-based
[16] = test system: Enterococcus faecium NCTC 7171; test: Agar plate multi-point inoculation, colour; assay type: cell-based
[17] = test system: Staphylococcus aureus NCTC 6571; test: Agar plate multi-point inoculation, colour; assay type: cell-based
[18] = test system: Staphylococcus epidermidis NCTC 11047; test: Agar plate multi-point inoculation, colour; assay type: cell-based
[19] = test system: Morganella morganii 462403 (wild); test: Agar plate multi-point inoculation, colour; assay type: cell-based; details: Columbia agar, FAC 500 mg/L, substrate 300 mg/L, 37° C. 18 h in air
[20] = test system: Bacillus subtilis NCTC 9372; test: Agar plate multi-point inoculation, colour; assay type: cell-based
[21] = Columbia agar, FAC 500 mg/L, substrate 300 mg/L, 37° C. 18 h in air

Row | Structure (SMILES) | Colour [1, 21] | Colour [2] | Colour [3] | Colour [4, 21] | melting point [°C] | Colour [5, 21] | Colour [6, 21] | Colour [7, 21] | Colour [8] | Colour [9, 21] | Colour [10] | Colour [11] | Colour [12, 21] | Colour [13, 21] | Colour [14, 21] | Colour [15, 21] | Colour [16, 21] | Colour [17, 21] | Colour [18, 21] | Colour [19] | further results
1 | OCC1OC(Oc2cc3cc(Br)c(Br)cc3cc2O)C(O)C(O)C1O [Compound 25, 6,7-Dibromo-DHN-β-D-galactopyranoside] | − | − | + | − | 256 to 257 | − | − | ++ | − | − | − | +/− | − | + | Tr. | +/− | +/− | − | − | − | Colour [20, 21]: −
2 | CC(=O)NC1C(Oc2cc3ccccc3cc2O)OC(CO)C(O)C1O [Compound 15, DHN-N-acetyl-β-D-glucosaminide] | − | − | − | − | 204 to 205 | +/− | − | − | + | ++ | − | − | − | ++ | ++ | ++ | ++ | − | − | − | Colour [20, 21]: −
3 | O=C(O)C1OC(Oc2cc3cc(Br)c(Br)cc3cc2O)C(O)C(O)C1O [Compound 29, 6,7-Dibromo-DHN-β-D-glucuronide CHA Salt] |  | − | − |  |  |  |  |  | − |  | − | − |  |  |  |  |  |  |  | − | Colour [1]: −; Colour [4]: −; Colour [5]: −; Colour [6]: −; Colour [7]: ++; Colour [9]: −; Colour [12]: −; Colour [13]: −; Colour [14]: −; Colour [15]: −; Colour [16]: −; Colour [17]: −; Colour [18]: −; Colour [20]: −
4 | O=C(O)C1OC(Oc2cc3cc(Br)c(Br)cc3cc2O)C(O)C(O)C1O (as salt: salt) [Compound 29, 6,7-Dibromo-DHN-β-D-glucuronide CHA Salt] |  |  |  |  | 221 to 224 |  |  |  |  |  |  |  |  |  |  |  |  |  |  |  | 
5 | O=C(O)C1OC(Oc2cc3ccccc3cc2O)C(O)C(O)C1O (as salt: salt) [Compound 12a, DHN-β-D-glucuronide CHA Salt] |  |  |  |  | 223 to 224 |  |  |  |  |  |  |  |  |  |  |  |  |  |  |  | 
6 | OCC1OC(Oc2cc3ccccc3cc2O)C(O)C(O)C1O [Compound 10, DHN-α-D-galactopyranoside] | − | − | − | − |  | Tr. | − | Tr. | − | − | − | − | − | − | − | − | − | − | − | − | Colour [20, 21]: −
7 | OCC1OC(Oc2cc3cc(Br)c(Br)cc3cc2O)C(O)C(O)C1O [Compound 27, 6,7-Dibromo-DHN-β-D-glucopyranoside] | − | − | + | ++ |  | − | − | Tr. | − | − | Tr. | + | − | ++ | Tr. | +/− | +/− | Tr. | − | − | Colour [20, 21]: +
